Laboratory results reported in patent US10407422B2, “Triazolopyridine inhibitors of myeloperoxidase” (priority 2015, dated 2019).
pIC50: −log10 of the molar value.

Assays:
myeloperoxidase (MPO) [1] = target: T1, myeloperoxidase (MPO) (Homo sapiens (Human), UniProt P05164); test: MPO chlorination assay (APF assay); assay type: biochemical; conditions: potency range class
How it was run: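 Chlorinating activity followed by APF cleavage to fluorescein (485/535 nm, 3 min kinetic read) after adding APF and 10 μM H2O2. Beforehand, 200 pM enzyme, compound and 120 mM NaCl sat 10 min at room temperature in 100 mM KPi, pH 7.4. Initial-rate slopes gave % inhibition; IC50 by Hill-slope fit.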

myeloperoxidase (MPO) [2] = target: T1, myeloperoxidase (MPO); test: MPO peroxidation assay (Amplex Red assay); assay type: biochemical; conditions: potency range class
How it was run: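 IC50 values come from a four-parameter fit of rates taken from the linear 180-540 s portion of a 15 min kinetic read of resorufin (Ex 535/Em 590 nm). Amplex Red (200 μM) plus 10 mM H2O2 was added after a 10 min room-temperature preincubation of inhibitor with 200 pM MPO and 40 nM H2O2 in 100 mM KPi, pH 7.4.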

T1 sequence (P05164 49-745): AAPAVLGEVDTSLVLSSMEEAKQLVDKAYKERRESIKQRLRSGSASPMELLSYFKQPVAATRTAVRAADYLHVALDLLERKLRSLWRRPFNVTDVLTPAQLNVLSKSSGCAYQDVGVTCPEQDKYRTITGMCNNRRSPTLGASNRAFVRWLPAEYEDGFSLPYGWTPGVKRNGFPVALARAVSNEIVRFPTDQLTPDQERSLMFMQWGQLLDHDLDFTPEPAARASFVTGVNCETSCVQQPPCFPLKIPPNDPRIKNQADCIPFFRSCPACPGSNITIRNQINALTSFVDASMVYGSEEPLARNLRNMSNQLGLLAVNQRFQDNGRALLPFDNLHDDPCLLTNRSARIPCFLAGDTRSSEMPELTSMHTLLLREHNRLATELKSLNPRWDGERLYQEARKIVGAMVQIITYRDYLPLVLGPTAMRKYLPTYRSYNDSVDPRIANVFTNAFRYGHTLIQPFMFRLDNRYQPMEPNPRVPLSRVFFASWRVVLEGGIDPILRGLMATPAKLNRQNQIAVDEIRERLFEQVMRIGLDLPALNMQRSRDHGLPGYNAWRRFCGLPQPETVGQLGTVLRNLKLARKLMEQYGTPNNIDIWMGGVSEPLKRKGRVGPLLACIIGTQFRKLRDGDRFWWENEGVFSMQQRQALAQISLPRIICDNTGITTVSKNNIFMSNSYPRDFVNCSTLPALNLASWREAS

| Structure (SMILES) | pIC50 (myeloperoxidase (MPO) [1]) | pIC50 (myeloperoxidase (MPO) [2]) |
| --- | --- | --- |
| Nc1cc(Cc2cnn(Cc3ccc(C(=O)NCc4cnco4)cc3)c2)c2nn[nH]c2n1 [Example 92, 4-{[4-({5-Amino-3H-[1,2,3]triazolo[4,5-b]pyridin-7-yl}methyl)-1H-pyrazol-1-yl]methyl}-N-(1,3-oxazol-5-ylmethyl)benzamide] | 5.00 to 6.00 | 6.00 to 7.00 |
| Nc1cc(Cc2cnn(Cc3ccc(C(=O)NCc4ccc(=O)[nH]c4)cc3)c2)c2nn[nH]c2n1 [Example 94, 4-{[4-({5-Amino-3H-[1,2,3]triazolo[4,5-b]pyridin-7-yl}methyl)-1H-pyrazol-1-yl]methyl}-N-[(6-oxo-1,6-dihydropyridin-3-yl)methyl]benzamide] | 6.00 to 7.00 | 7.00 to 9.00 |
| Cc1nnc(C(C)NC(=O)c2ccc(Cn3cc(Cc4cc(N)nc5[nH]nnc45)cn3)cc2)[nH]1 (centres unmarked) [Example 95, 4-{[4-({5-Amino-3H-[1,2,3]triazolo[4,5-b]pyridin-7-yl}methyl)-1H-pyrazol-1-yl]methyl}-N-[1-(5-methyl-4H-1,2,4-triazol-3-yl)ethyl]benzamide] | 6.00 to 7.00 | 6.00 to 7.00 |
| Nc1cc(Cc2cnn(Cc3ccc(C(=O)N4CCOCC4)cc3)c2)c2nn[nH]c2n1 [Example 96, 7-[(1-{[4-(Morpholine-4-carbonyl)phenyl]methyl}-1H-pyrazol-4-yl)methyl]-3H-[1,2,3]triazolo[4,5-b]pyridin-5-amine] | 6.00 to 7.00 | 7.00 to 9.00 |
| Nc1cc(Cc2cnn(Cc3cccnc3)c2)c2nn[nH]c2n1 [Example 102, 7-((1-(Pyridin-3-ylmethyl)-1H-pyrazol-4-yl)methyl)-3H-[1,2,3]triazolo[4,5-b]pyridin-5-amine] | 6.00 to 7.00 | 7.00 to 9.00 |
| Nc1cc(Cc2cnn(Cc3ccc(C(F)(F)F)cc3)c2)c2nn[nH]c2n1 [Example 103, 7-((1-(4-(Trifluoromethyl)benzyl)-1H-pyrazol-4-yl)methyl)-3H-[1,2,3]triazolo[4,5-b]pyridin-5-amine] | 6.00 to 7.00 | 6.00 to 7.00 |
| Nc1cc(Cc2cnn(Cc3ccc(OC(F)F)cc3)c2)c2nn[nH]c2n1 [Example 104, 7-((1-(4-(Difluoromethoxy)benzyl)-1H-pyrazol-4-yl)methyl)-3H-[1,2,3]triazolo[4,5-b]pyridin-5-amine] | 6.00 to 7.00 | 7.00 to 9.00 |
| COc1ccc(-c2ccc(Cn3cc(Cc4cc(N)nc5[nH]nnc45)cn3)cc2)cn1 [Example 105, 7-((1-(4-(6-Methoxypyridin-3-yl)benzyl)-1H-pyrazol-4-yl)methyl)-3H-[1,2,3]triazolo[4,5-b]pyridin-5-amine] | 6.00 to 7.00 | 6.00 to 7.00 |
| Nc1cc(Cc2cnn(Cc3cn(Cc4ccccc4)nn3)c2)c2nn[nH]c2n1 [Example 107, 7-((1-((1-Benzyl-1H-1,2,3-triazol-4-yl)methyl)-1H-pyrazol-4-yl)methyl)-3H-[1,2,3]triazolo[4,5-b]pyridin-5-amine] | 6.00 to 7.00 | 7.00 to 9.00 |
| Nc1cc(Cc2cnn(Cc3ccc(CN4CCOCC4)cc3)c2)c2nn[nH]c2n1 [Example 108, 7-((1-(4-(Morpholinomethyl)benzyl)-1H-pyrazol-4-yl)methyl)-3H-[1,2,3]triazolo[4,5-b]pyridin-5-amine] | 6.00 to 7.00 | 7.00 to 9.00 |
| Nc1cc(Cc2cnn(Cc3ccc(Cn4cccn4)cc3)c2)c2nn[nH]c2n1 [Example 109, 7-((1-(4-((1H-Pyrazol-1-yl)methyl)benzyl)-1H-pyrazol-4-yl)methyl)-3H-[1,2,3]triazolo[4,5-b]pyridin-5-amine] | 6.00 to 7.00 | 7.00 to 9.00 |
| Nc1cc(Cc2cnn(Cc3ccc(N4CCOCC4)cc3)c2)c2nn[nH]c2n1 [Example 111, 7-((1-(4-Morpholinobenzyl)-1H-pyrazol-4-yl)methyl)-3H-[1,2,3]triazolo[4,5-b]pyridin-5-amine] | 6.00 to 7.00 | 5.00 to 6.00 |
| CN1CCN(c2ccc(Cn3cc(Cc4cc(N)nc5[nH]nnc45)cn3)cc2)CC1 [Example 112, 7-((1-(4-(4-Methylpiperazin-1-yl)benzyl)-1H-pyrazol-4-yl)methyl)-3H-[1,2,3]triazolo[4,5-b]pyridin-5-amine] | 6.00 to 7.00 | 7.00 to 9.00 |
| CC(C)(C)c1ccc(Cn2cc(Cc3cc(N)nc4[nH]nnc34)cn2)cc1 [Example 113, 7-((1-(4-(tert-Butyl)benzyl)-1H-pyrazol-4-yl)methyl)-3H-[1,2,3]triazolo[4,5-b]pyridin-5-amine] | 6.00 to 7.00 | 7.00 to 9.00 |
| Cc1nn(-c2ccccc2)nc1Cn1cc(Cc2cc(N)nc3[nH]nnc23)cn1 [Example 114, 7-((1-((5-Methyl-2-phenyl-2H-1,2,3-triazol-4-yl)methyl)-1H-pyrazol-4-yl)methyl)-3H-[1,2,3]triazolo[4,5-b]pyridin-5-amine] | 6.00 to 7.00 | 7.00 to 9.00 |
| Nc1cc(Cc2cnn(Cc3cnn(-c4ccccn4)c3)c2)c2nn[nH]c2n1 [Example 115, 7-((1-((1-(Pyridin-2-yl)-1H-pyrazol-4-yl)methyl)-1H-pyrazol-4-yl)methyl)-3H-[1,2,3]triazolo[4,5-b]pyridin-5-amine] | 6.00 to 7.00 | 7.00 to 9.00 |
| Nc1cc(Cc2cnn(Cc3cn(-c4ccccc4)nn3)c2)c2nn[nH]c2n1 [Example 116, 7-((1-((1-Phenyl-1H-1,2,3-triazol-4-yl)methyl)-1H-pyrazol-4-yl)methyl)-3H-[1,2,3]triazolo[4,5-b]pyridin-5-amine] | 6.00 to 7.00 | 7.00 to 9.00 |
| Nc1cc(Cc2cnn(Cc3ccc(Cl)cc3Cl)c2)c2nn[nH]c2n1 [Example 117, 7-((1-(2,4-Dichlorobenzyl)-1H-pyrazol-4-yl)methyl)-3H-[1,2,3]triazolo[4,5-b]pyridin-5-amine] | 6.00 to 7.00 | 7.00 to 9.00 |
| Cc1nc(-c2ccc(Cl)cc2)sc1Cn1cc(Cc2cc(N)nc3[nH]nnc23)cn1 [Example 119, 7-((1-((2-(4-Chlorophenyl)-4-methylthiazol-5-yl)methyl)-1H-pyrazol-4-yl)methyl)-3H-[1,2,3]triazolo[4,5-b]pyridin-5-amine] | 6.00 to 7.00 | 7.00 to 9.00 |

Second part, the compound after the results:

| pIC50 (myeloperoxidase (MPO) [1]) | pIC50 (myeloperoxidase (MPO) [2]) | Structure (SMILES) |
| --- | --- | --- |
| 6.00 to 7.00 | 7.00 to 9.00 | CN(C)CCCNC(=O)c1ccc(Cn2cc(Cc3cc(N)nc4[nH]nnc34)cn2)cc1 [Example 89, 4-{[4-({5-Amino-3H-[1,2,3]triazolo[4,5-b]pyridin-7-yl}methyl)-1H-pyrazol-1-yl]methyl}-N-[3-(dimethylamino)propyl]benzamide] |
| 6.00 to 7.00 | 7.00 to 9.00 | NC(=O)CNC(=O)c1ccc(Cn2cc(Cc3cc(N)nc4[nH]nnc34)cn2)cc1 [Example 90, 2-[(4-{[4-({5-Amino-3H-[1,2,3]triazolo[4,5-b]pyridin-7-yl}methyl)-1H-pyrazol-1-yl]methyl}phenyl)formamido]acetamide] |
| 6.00 to 7.00 | 7.00 to 9.00 | Cc1cnc(CNC(=O)c2ccc(Cn3cc(Cc4cc(N)nc5[nH]nnc45)cn3)cc2)cn1 [Example 91, 4-{[4-({5-Amino-3H-[1,2,3]triazolo[4,5-b]pyridin-7-yl}methyl)-1H-pyrazol-1-yl]methyl}-N-[(5-methylpyrazin-2-yl)methyl]benzamide] |
| 6.00 to 7.00 | 7.00 to 9.00 | Nc1cc(Cc2cnn(Cc3ccc(C(=O)NCc4cncnc4)cc3)c2)c2nn[nH]c2n1 [Example 93, 4-{[4-({5-Amino-3H-[1,2,3]triazolo[4,5-b]pyridin-7-yl}methyl)-1H-pyrazol-1-yl]methyl}-N-(pyrimidin-5-ylmethyl)benzamide] |
| 7.00 to 9.00 | 7.00 to 9.00 | COc1cccc(Cn2cc(Cc3cc(N)nc4[nH]nnc34)cn2)c1 [Example 97, 7-((1-(3-Methoxybenzyl)-1H-pyrazol-4-yl)methyl)-3H-[1,2,3]triazolo[4,5-b]pyridin-5-amine] |
| 7.00 to 9.00 | 7.00 to 9.00 | Nc1cc(Cc2cnn(Cc3cccc(OC4CC4)c3)c2)c2nn[nH]c2n1 [Example 98, 7-((1-(3-Cyclopropoxybenzyl)-1H-pyrazol-4-yl)methyl)-3H-[1,2,3]triazolo[4,5-b]pyridin-5-amine] |
| 7.00 to 9.00 | 7.00 to 9.00 | Nc1cc(Cc2cnn(Cc3cccc(OCc4ccccc4)c3)c2)c2nn[nH]c2n1 [Example 99, 7-((1-(3-(Benzyloxy)benzyl)-1H-pyrazol-4-yl)methyl)-3H-[1,2,3]triazolo[4,5-b]pyridin-5-amine] |
| 7.00 to 9.00 | 7.00 to 9.00 | Cn1ccc(-c2cccc(Cn3cc(Cc4cc(N)nc5[nH]nnc45)cn3)c2)n1 [Example 100, 7-((1-(3-(1-Methyl-1H-pyrazol-3-yl)benzyl)-1H-pyrazol-4-yl)methyl)-3H-[1,2,3]triazolo[4,5-b]pyridin-5-amine] |
| 7.00 to 9.00 | 7.00 to 9.00 | Nc1cc(Cc2cnn(Cc3cccc(Br)c3)c2)c2nn[nH]c2n1 [Example 101, 7-((1-(3-Bromobenzyl)-1H-pyrazol-4-yl)methyl)-3H-[1,2,3]triazolo[4,5-b]pyridin-5-amine] |
| 7.00 to 9.00 | 7.00 to 9.00 | Nc1cc(Cc2cnn(Cc3cccc(Oc4ccccc4)c3)c2)c2nn[nH]c2n1 [Example 106, 7-((1-(3-Phenoxybenzyl)-1H-pyrazol-4-yl)methyl)-3H-[1,2,3]triazolo[4,5-b]pyridin-5-amine] |
| 7.00 to 9.00 | 7.00 to 9.00 | Nc1cc(Cc2cnn(Cc3ccc(Cn4ccnc4)cc3)c2)c2nn[nH]c2n1 [Example 110, 7-((1-(4-((1H-Imidazol-1-yl)methyl)benzyl)-1H-pyrazol-4-yl)methyl)-3H-[1,2,3]triazolo[4,5-b]pyridin-5-amine] |
| 7.00 to 9.00 | 7.00 to 9.00 | Nc1cc(Cc2cnn(CC3Cc4ccccc4C3)c2)c2nn[nH]c2n1 [Example 118, 7-((1-((2,3-Dihydro-1H-inden-2-yl)methyl)-1H-pyrazol-4-yl)methyl)-3H-[1,2,3]triazolo[4,5-b]pyridin-5-amine] |
